According to US8916523B2, “VIP fragments and methods of use” (Vectus Biosystems Limited, priority 2005, dated 2014):
Ends that are not written are not given here.

Tests used:
[1] = tested on: Spontaneous Hypertensive Rats (SHR); test: Effect of VIP fragment treatment on blood pressure (tail cuff plethysmography) in animal model of hypertension; assay type: in vivo, rat; settings: for reduction in systolic blood pressure (SBP) relative to the control solution: SHR on 2.2% salt diet for 4 weeks, peptide infused at 5 pmol/kg/min for 4 weeks, FIGS. 6-9
Description: To determine whether VIP and fragments were effective in controlling blood pressure, Spontaneous Hypertensive Rats (SHR) were acclimated to blood pressure measurement by tail cuff plethysmography and then they were placed on a 2.2% salt diet for 4 weeks.
The rats were randomized to Control (Hartman's Solution) vehicle infusion, VIP(1-28) ([…] (SEQ ID NO: 1), VIP(4-10) (Ala-Val-Phe-Thr-Asp-Asn-Tyr) (SEQ ID NO: 29), VIP(4-12) (Ala-Val-Phe-Thr-Asp-Asn-Tyr-Thr-Arg) (SEQ ID NO: 31), VIP(4-16) (Ala-Val-Phe-Thr-Asp-Asn-Tyr-Thr-Arg-Leu-Arg-Lys-Gln) (SEQ ID NO: 35), VIP(4-20) (Ala-Val-Phe-Thr-Asp-Asn-Tyr-Thr-Arg-Leu-Arg-Lys-Gln-Met-Ala-Val-Lys) (SEQ ID NO: 39), VIP(4-24) ([…] (SEQ ID NO: 43), VIP(4-28) ([…] (SEQ ID NO: 90), VIP(6-10) (Phe-Thr-Asp-Asn-Tyr) (SEQ ID NO: 66), VIP(6-12) (Phe-Thr-Asp-Asn-Tyr-Thr-Arg) (SEQ ID NO: 68), VIP(6-16) (Phe-Thr-Asp-Asn-Tyr-Thr-Arg-Leu-Arg-Lys-Gln) (SEQ ID NO: 72), VIP(6-20) (Phe-Thr-Asp-Asn-Tyr-Thr-Arg-Leu-Arg-Lys-Gln-Met-Ala-Val-Lys) (SEQ ID NO: 76), VIP(6-24) (Phe-Thr-Asp-Asn-Tyr-Thr-Arg-Leu-Arg-Lys-Gln-Met-Ala-Val-Lys-Lys-Tyr-Leu-Asn) (SEQ ID NO: 80), VIP(6-28) ([…] (SEQ ID NO: 84), VIP(16-20) (Gln-Met-Ala-Val-Lys) (SEQ ID NO: 20), VIP(16-24) (Gln-Met-Ala-Val-Lys-Lys-Tyr-Leu-Asn) (SEQ ID NO: 93), VIP(16-28) (Gln-Met-Ala-Val-Lys-Lys-Tyr-Leu-Asn-Ser-Ile-Leu-Asn) (SEQ ID NO: 88), VIP(1-12) (His-Ser-Asp-Ala-Val-Phe-Thr-Asp-Asn-Tyr-Thr-Arg) (SEQ ID NO: 91) and VIP(10-28) (Tyr-Thr-Arg-Leu-Arg-Lys-Gln-Met-Ala-Val-Lys-Lys-Tyr-Leu-Asn-Ser-Ile-Leu-Asn) (SEQ ID NO: 92), VIP(4-10) (Ala-Val-Phe-Thr-Asp-Asn-Tyr) (SEQ ID NO: 29).
Each peptide was infused at 5 pmol/kg/min
Blood pressure was measured by tail cuff plethysmography twice weekly for 4 weeks.

[2] = tested on: WKY rats on a high salt diet; test: Effect of VIP fragment treatment on regression of existing myocardial fibrosis; assay type: in vivo, rat; settings: 18 week old WKY rats after 4 weeks high salt diet and infusion 5 pmol/kg/min vs untreated 14 week old rats (zero time), preliminary results, FIG. 2
Description: To determine whether VIP (6-16) (SEQ ID NO: 72), VIP(6-20) (SEQ ID NO: 76) and VIP(6-24) (SEQ ID NO: 80) infusion caused regression of existing fibrosis as well as prevented progression of fibrosis two groups of studies were performed. The degree of myocardial fibrosis in untreated 14 week old WKY rats was compared with the degree of fibrosis in 18 week old WKY rats after 4 weeks treatment with a high salt diet or a high salt diet plus L-NAME (10 mg/kg/day) and either VIP (6-16) (SEQ ID NO: 72), VIP(6-20) (SEQ ID NO: 76) and VIP(6-24) (SEQ ID NO: 80) (5 pmol/kg/min) or vehicle control infusion (see FIG. 2)
The regression of fibrosis may be due to either reduction in collagen formation or enhancement of its degradation.

[3] = tested on: myocardial fibrosis; settings: disclosed in PCT/AU2005/000835; cited from earlier work

Substance | reduction in systolic blood pressure (SBP) relative to the control solution [1] | other results
His-Ser-Asp-Ala-Val-Phe-Thr-Asp-Asn-Tyr-Thr-Arg-Leu-Arg-Lys-Gln-Met-Ala-Val-Lys-Lys-Tyr-Leu-Asn-Ser-Ile-Leu-Asn (HSDAVFTDNYTRLRKQMAVKKYLNSILN; listed as Homo sapiens) [VIP, reference compound] | not seen to have any significant effect in reducing SBP | 
AVFTDNYTRLRKQ [VIP(4-16)] | significant reductions in SBP | relative efficacy in reducing SBP compared with VIP(4-12) and VIP(4-20) ([1]; SHR on high salt diet, 5 pmol/kg/min for 4 weeks, FIG. 6): less efficacious
FTDNYTRLRKQ [VIP(6-16)] |  | regression of myocardial fibrosis [2]: regression of myocardial fibrosis
AVFTDNYTRLRKQMAVKKYLN [VIP(4-24)] | significant reductions in SBP | 
FTDNYTRLRKQMAVK [VIP(6-20)] | significant reductions in SBP | 
AVFTDNYTR [VIP(4-12)] | significant reductions in SBP | 
FTDNYTRLRKQMAVKKYLN [VIP(6-24)] | significant reductions in SBP | 
Phe-Thr-Asp-Asn-Tyr-Thr-Arg-Leu-Arg-Lys-Gln-Met-Ala-Val-Lys-Lys-Tyr-Leu-Asn-Ser-Ile-Leu-Asn (FTDNYTRLRKQMAVKKYLNSILN; listed as Homo sapiens) [VIP(6-28), VIP fragment described earlier in PCT/AU2005/000835, not included in the present invention, reference compound] | significant reductions in SBP | effectiveness for preventing myocardial fibrosis [3]: effective for preventing myocardial fibrosis
AVFTDNYTRLRKQMAVK [VIP(4-20)] | significant reductions in SBP | 
AVFTDNYTRLRKQMAVKKYLNSILN [VIP(4-28)] | significant reductions in SBP | 
